{"source": "patent US5432200A", "about": "“Method for increasing urinary excretion of electrolytes” (priority 1993, dated 1995)", "key": {"[1]": {"details": "in vivo; cited from earlier work"}, "[2]": {"assay": "Physiological effects: urinary composition in two patients, five phases of study (Example 8, Table 1)", "format": "in vivo, human (patients)", "details": "for Urinary Ca / Urinary pH / Urinary Oxalate / Urinary K / Urinary Mg / Urinary Na / Urinary Citrate: mean of two patients, tablets/d: KCl 7, K citrate 10, Mg citrate 2.5, K-Mg citrate 7; for Urinary pH: placebo 6.26; for Urinary Oxalate: placebo 27; for Urinary K: placebo 31; for Urinary Mg: placebo 64; for Urinary Na: placebo 95; for Urinary Citrate: placebo 498"}, "[3]": {"assay": "Bioavailability of potassium, magnesium and citrate in normal subjects: cumulative increment in urinary excretion after single oral dose (Example 7)", "details": "urine 24 hours", "procedure": "(§1) The study was performed with three normal subjects.\n(§2) The subject underwent three phases of study. […] Urine was collected at frequent intervals for 24 hours after oral ingestion of each salt (at 8 a.m.).\n(§3) Potassium bioavailability from potassium magnesium citrate was compared with that of potassium citrate. At each time period, the difference in urinary potassium following ingestion of potassium magnesium citrate (containing 49 meq potassium) or potassium citrate (containing 50 meq potassium) from that obtained at a corresponding time period following taking magnesium citrate (no potassium; therefore serving as control).\n(§4) Magnesium bioavailability from potassium magnesium citrate was compared with that of magnesium citrate.\n(§5) Citrate bioavailability from potassium magnesium citrate was compared with that of potassium citrate and magnesium citrate."}, "[4]": {"details": "cited from earlier work"}, "[5]": {"tested_on": "nephrolithiasis", "details": "cited from earlier work"}, "[6]": {"details": "human, in vivo, po", "procedure": "as §1, §2, §3, §4, §5"}, "[7]": {"tested_on": "hypercalciuric nephrolithiasis", "details": "cited from earlier work"}, "[8]": {"details": "hypercalciuric patients with nephrolithiasis treated with thiazide"}}, "note": "Structures can show the parent of a compound that is named as a salt."}
{"smiles": "[Cl-].[K+]", "note": "[potassium chloride]", "values": [{"measurement": "side effects", "setting": "[1]", "result": "arrhythmia and diarrhea"}, {"measurement": "Urinary Ca", "setting": "[2]", "result": 103, "unit": "mg/day"}, {"measurement": "Urinary pH", "setting": "[2]", "result": 5.84}, {"measurement": "Urinary Oxalate", "setting": "[2]", "result": 27, "unit": "mg/day"}, {"measurement": "Urinary K", "setting": "[2]", "result": 90, "unit": "meq/d"}, {"measurement": "Urinary Mg", "setting": "[2]", "result": 73, "unit": "mg/day"}, {"measurement": "Urinary Na", "setting": "[2]", "result": 81, "unit": "meq/d"}, {"measurement": "Urinary Citrate", "setting": "[2]", "result": 636, "unit": "mg/day"}]}
{"smiles": "O=C(O)CC(O)(CC(=O)O)C(=O)O", "note": "[magnesium citrate]", "values": [{"measurement": "cumulative increment in urinary magnesium (magnesium bioavailability or absorption)", "setting": "[3]; 24.5 meq Mg (potassium magnesium citrate) vs 25 meq Mg (magnesium citrate), potassium citrate phase as control, FIG. 3", "result": "equivalent magnesium bioavailability between the two preparations"}, {"measurement": "Urinary Ca", "setting": "[2]; listed as Magnesium Citrate", "result": 137, "unit": "mg/day"}, {"measurement": "Urinary pH", "setting": "[2]; listed as Magnesium Citrate", "result": 6.13}, {"measurement": "Urinary Oxalate", "setting": "[2]; listed as Magnesium Citrate", "result": 23, "unit": "mg/day"}, {"measurement": "Urinary K", "setting": "[2]; listed as Magnesium Citrate", "result": 38, "unit": "meq/d"}, {"measurement": "Urinary Mg", "setting": "[2]; listed as Magnesium Citrate", "result": 113, "unit": "mg/day"}, {"measurement": "Urinary Na", "setting": "[2]; listed as Magnesium Citrate", "result": 82, "unit": "meq/d"}, {"measurement": "Urinary Citrate", "setting": "[2]; listed as Magnesium Citrate", "result": 718, "unit": "mg/day"}, {"measurement": "magnesiuric and citraturic effect compared with magnesium oxide", "setting": "[4]; magnesium salts provided in small divided doses", "result": "equivalent magnesiuric and citraturic effect as magnesium oxide"}, {"measurement": "absorbability compared with magnesium oxide", "setting": "[4]; vs magnesium oxide", "result": "more soluble and absorbable than magnesium oxide"}]}
{"smiles": "NS(=O)(=O)c1cc2c(cc1Cl)NCNS2(=O)=O", "note": "[thiazide]", "values": [{"measurement": "potassium and magnesium depletion", "setting": "[5]; thiazide therapy, by provoking renal loss of potassium and magnesium", "result": "may cause hypokalemia and magnesium depletion"}, {"measurement": "relapse rate", "setting": "[5]; use of thiazide alone", "result": "37.5-57.1%"}]}
{"smiles": "O=C([O-])CC(O)(CC(=O)[O-])C(=O)[O-].O=C([O-])CC(O)(CC(=O)[O-])C(=O)[O-].[K+].[K+].[K+].[K+].[Mg+2]", "note": "[potassium magnesium citrate, tetrapotassium monomagnesium dicitrate]", "values": [{"measurement": "Urinary Ca", "setting": "[2]", "result": 106, "unit": "mg/day"}, {"measurement": "Urinary pH", "setting": "[2]", "result": 6.94}, {"measurement": "Urinary Oxalate", "setting": "[2]", "result": 23, "unit": "mg/day"}, {"measurement": "Urinary K", "setting": "[2]", "result": 73, "unit": "meq/d"}, {"measurement": "Urinary Mg", "setting": "[2]", "result": 116, "unit": "mg/day"}, {"measurement": "Urinary Na", "setting": "[2]", "result": 92, "unit": "meq/d"}, {"measurement": "Urinary Citrate", "setting": "[2]", "result": 968, "unit": "mg/day"}, {"measurement": "urinary pH and citrate compared to magnesium citrate", "setting": "[2]; vs magnesium citrate", "result": "higher values for urinary pH and citrate"}, {"measurement": "urinary calcium and oxalate compared to placebo", "setting": "[2]; vs placebo", "result": "lower values for urinary calcium and oxalate"}, {"measurement": "urinary pH, magnesium, potassium and citrate compared to placebo", "setting": "[2]; vs placebo", "result": "higher values for urinary pH, magnesium, potassium and citrate"}, {"measurement": "urinary pH, magnesium and citrate compared to potassium chloride", "setting": "[2]; vs potassium chloride", "result": "higher urinary pH, magnesium, and citrate"}, {"measurement": "citrate and magnesium excretion compared to potassium citrate", "setting": "[2]; vs potassium citrate", "result": "greater citrate excretion as well as enhanced magnesium excretion"}, {"measurement": "cumulative increment in urinary citrate (citrate bioavailability)", "setting": "[6]", "result": "much higher for potassium magnesium citrate than for the other two preparations"}]}
{"smiles": "O=C(O)CC(O)(CC(=O)O)C(=O)O", "note": "[potassium citrate]", "values": [{"measurement": "cumulative increment in urinary potassium (potassium bioavailability)", "setting": "[3]; 49 meq K (potassium magnesium citrate) vs 50 meq K (potassium citrate), magnesium citrate phase as control, FIG. 2", "result": "equivalent between the two preparations"}, {"measurement": "Urinary Ca", "setting": "[2]; listed as Potassium Citrate", "result": 86, "unit": "mg/day"}, {"measurement": "Urinary pH", "setting": "[2]; listed as Potassium Citrate", "result": 6.93}, {"measurement": "Urinary Oxalate", "setting": "[2]; listed as Potassium Citrate", "result": 27, "unit": "mg/day"}, {"measurement": "Urinary K", "setting": "[2]; listed as Potassium Citrate", "result": 80, "unit": "meq/d"}, {"measurement": "Urinary Mg", "setting": "[2]; listed as Potassium Citrate", "result": 69, "unit": "mg/day"}, {"measurement": "Urinary Na", "setting": "[2]; listed as Potassium Citrate", "result": 91, "unit": "meq/d"}, {"measurement": "Urinary Citrate", "setting": "[2]; listed as Potassium Citrate", "result": 821, "unit": "mg/day"}, {"measurement": "citrate excretion", "setting": "[7]; [8]", "result": "augments citrate excretion"}, {"measurement": "effect on thiazide-induced hypokalemia", "setting": "[7]; [8]", "result": "averts the development of hypokalemia"}, {"measurement": "recurrent stone formation", "setting": "[7]; patients who have relapsed on thiazide therapy", "result": "prevents recurrent stone formation"}, {"measurement": "effect on thiazide-induced magnesium depletion", "setting": "[7]; potassium citrate therapy", "result": "does not avert thiazide-induced magnesium depletion"}]}
